In patent US20240409536A1, “COMPOUNDS AND METHODS FOR MODULATING SPLICING” (REMIX THERAPEUTICS INC., priority 2021, published 2024):
Like-named read-outs stand apart in the source and are kept apart here.

Experiments:
[1] = tested on: MYB mRNA; assay: Splicing RT-qPCR assay, MYB canonical (CJ) and alternative (AJ) junction mRNA; format: cell-based; details: Homo sapiens, A673 or K562 cells, 24 hours; for IC50: decrease in canonical junction mRNA; for AC50: increase in alternative junction mRNA
Experimental: (§1) Compounds described herein were used to modulate RNA transcript abundance in cells. The expression of a target mRNA was measured by detecting the formation of an exon-exon junction in the canonical transcript (CJ). A compound mediated exon-inclusion event was detected by observing an increase in formation of a new junction with an alternative exon (AJ). Real-time qPCR assays were used to detect these splicing switches and interrogate the potency of various compounds towards different target genes. A high-throughput real time quantitative PCR (RT-qPCR) assay was developed to measure these two isoforms of the mRNA (CJ and AJ) for exemplary genes, such as HTT, SMN2, and MYB, together with a control housekeeping gene, GAPDH or GUSB or PPIA, used for normalization. Briefly, the A673 or K562 cell line was treated with various compounds described herein (e.g., compounds of Formula (I), (I), or (III)). After treatment, the levels of the HTT, MYB, or SMN2 mRNA targets were determined from each sample of cell lysate by cDNA synthesis followed by qPCR.
(§2) • Cells-to-CT 1-step kit: ThermoFisher A25602, Cells-to-CT lysis reagent: ThermoFisher 4391851C, TaqMan™ Fast Virus 1-Step Master Mix: ThermoFisher 4444436 • GAPDH: VIC-PL, ThermoFisher 4326317E (Assay: Hs99999905_ml)—used for K562/suspension cell lines • GUSB: VIC-PL, ThermoFisher 4326320E (Assay: Hs99999908_ml)—used for K562/suspension cell lines • PPIA: VIC-PL, ThermoFisher 4326316E (Assay: Hs99999904_ml)—used for A673/adherent cell lines
(§3) The A673 cell line was cultured in DMEM with 10% FBS. Cells were diluted with full growth media and plated in a 96-well plate (15,000 cells in 100 ul media per well). The plate was incubated at 37° C. with 5% CO2 for 24 hours to allow cells to adhere. An 11-point 3-fold serial dilution of the compounds was made in DMSO then diluted in media in an intermediate plate. Compounds were transferred from the intermediate plate to the cell plate with the top dose at a final concentration of 10 uM in the well. Final DMSO concentration was kept at or below 0.25%. The cell plate was returned to the incubator at 37° C. with 5% CO2 for an additional 24 hours.
(§4) The K562 cell line was cultured in IMDM with 10% FBS. For K562, cells were diluted with full growth media and plated in either a 96-well plate (50,000 cells in 50 uL media per well) or a 384-well plate (8,000-40,000 cells in 45 uL media per well). An 11-point 3-fold serial dilution of the compounds were made in DMSO then diluted in media in an intermediate plate. Compound was transferred from the intermediate plate to the cell plate with the top dose at a final concentration of 10 uM in the well. Final DMSO concentration was kept at or below 0.25%. Final volume was 100 uL for 96-well plate and 50 uL for 384-well plate. The cell plate was then placed in an incubator at 37° C. with 5% CO2 for 24 hours.
(§5) The cells were then gently washed with 50 uL-100 uL cold PBS before proceeding to addition of lysis buffer. 30 uL-50 uL of room temperature lysis buffer with DNAse I (and optionally RNAsin) was added to each well. Cells were shaken/mixed thoroughly at room temperature for 5-10 minutes for lysis to take place and then 3 uL-5 uL of room temperature stop solution was added and wells were shaken/mixed again. After 2-5 minutes, the cell lysate plate was transferred to ice for RT-qPCR reaction setup. The lysates could also be frozen at −80° C. for later use.
(§6) In some cases, a direct lysis buffer was used. An appropriate volume of 3×lysis buffer (10 mM Tris, 150 mM NaCl, 1.5%-2.5% Igepal and 0.1-1 U/uL RNAsin, pH 7.4) was directly added to either K562 or A673 cells in media and mixed by pipetting 3 times. The plates were then incubated at room temperature with shaking/rocking for 20-50 minutes to allow for lysis to take place. After this time, the cell lysate plate was transferred to ice to set up for the RT-qPCR reactions. The lysates could also be frozen at −80° C. for later use. […]

[2] = tested on: HTT mRNA; assay: Gene panel canonical junction qPCR assay, HTT CJ mRNA decrease; format: cell-based, human; details: Homo sapiens
Experimental: as §1
(§7) The data analysis was performed by first determining the ΔCt vs the housekeeper gene. This ΔCt was then normalized against the DMSO control (ΔΔCt) and converted to RQ (relative quantification) using the 2^(−ΔΔCt) equation. The RQ were then converted to a percentage response by arbitrarily setting an assay window of 3.5 and 4.0 ΔCt for HTT-CJ and MYB-CJ respectively and an assay window of 9 and 3 ΔCt for HTT-AJ and MYB-AJ in 96 well format (50,000 K562 cells/well and 15,000 A673 cells per well) and an assay window of 3 and 4 ΔCt for HTT-CJ and MYB-CJ respectively and an assay window of 5 and 3 ΔCt for HTT-AJ and MYB-AJ respectively in 384 well format (8,000 K562 cells/well example). […] The percentage response was then fitted to the 4 parametric logistic equation to evaluate the concentration dependence of compound treatment. The increase in AJ mRNA is reported as AC50 (compound concentration having […] in AJ increase) while the decrease in CJ mRNA levels is reported as IC50 (compound concentration having 50) response in CJ decrease).
(§8) Additional studies were carried out for a larger panel of genes using the protocol provided above. The junction between flanking upstream and downstream exons was used to design canonical junction qPCR assays. At least one of the forward primer, reverse primer or the CY5-labeled 5′ nuclease probe (with 3′ quencher such as ZEN/Iowa Black FQ) was designed to overlap with the exon junction to capture the CJ mRNA transcript. BLAST was used to confirm the specificity of the probeset and parameters such as melting temperature, GC content, amplicon size, and primer dimer formation are considered during their design. Data for the decrease in CJ mRNA levels for four exemplary genes (HTT, SMN2, MYB, and Target C) analyzed in this panel are reported as IC50 (compound concentration having […] in CJ decrease).
(§9) A summary of the results from the panel is illustrated in Tables 5A and 51B, wherein “A” represents an IC50 of less than 100 nM; “B” represents an IC50 of between 100 nM and 1 μM; and “C” represents an IC50 of between 1 μM and 10 μM; and “D” represents an IC50 of greater than 10 μM.

[3] = tested on: Target C mRNA; assay: Gene panel canonical junction qPCR assay, Target C CJ mRNA decrease; format: cell-based; details: Homo sapiens
Experimental: as §1, §7, §8, §9

[4] = tested on: MYB mRNA; assay: Gene panel canonical junction qPCR assay, MYB CJ mRNA decrease; format: cell-based, human; details: Homo sapiens
Experimental: as §1, §7, §8, §9

[5] = tested on: SMN2 mRNA; assay: Gene panel canonical junction qPCR assay, SMN2 CJ mRNA decrease; format: cell-based, human; details: Homo sapiens
Experimental: as §1, §7, §8, §9

[6] = tested on: HTT mRNA; assay: Splicing RT-qPCR assay, HTT canonical (CJ) and alternative (AJ) junction mRNA; format: cell-based; details: Homo sapiens, A673 or K562 cells, 24 hours; for IC50: decrease in canonical junction mRNA; for AC50: increase in alternative junction mRNA
Experimental: as §1, §2, §3, §4, §5, §6

[7] = canonical junction qPCR, read-out: HTT IC50 (decrease in CJ mRNA levels)
[8] = canonical junction qPCR, read-out: Target C IC50 (decrease in CJ mRNA levels)
[9] = canonical junction qPCR, read-out: MYB IC50 (decrease in CJ mRNA levels)
[10] = canonical junction qPCR, read-out: SMN2 IC50 (decrease in CJ mRNA levels)
[11] = decrease in CJ mRNA levels, read-out: HTT IC50
[12] = decrease in CJ mRNA levels, read-out: Target C IC50
[13] = decrease in CJ mRNA levels, read-out: MYB IC50
[14] = decrease in CJ mRNA levels, read-out: SMN2 IC50

| SMILES | IC50 [1] [µM] | AC50 [1] [µM] | IC50 [2, 7] [µM] | IC50 [3, 8] [µM] | IC50 [4, 9] [µM] | IC50 [5, 10] [µM] | IC50 [6] [µM] | AC50 [6] [µM] | IC50 [2, 11] [µM] | IC50 [3, 12] [µM] | IC50 [4, 13] [µM] | IC50 [5, 14] [µM] |
| --- | --- | --- | --- | --- | --- | --- | --- | --- | --- | --- | --- | --- |
| Cc1cn2cc(NC(=O)c3ccc(N4CCNCC4)c4ccnnc34)nc2c(C)n1 [Compound 121] | 0.1 to 1 | 1 to 10 | > 10 | > 10 | 0.1 to 1 | 0.1 to 1 | > 10 | > 10 | – | – | – | – |
| Cc1cn2cc(NC(=O)c3ccc(N4CC5(CN(C)C5)C4)c4ccnnc34)cc(F)c2n1 [Compound 132] | 0.1 to 1 | 0.1 to 1 | 1 to 10 | > 10 | 0.1 to 1 | < 0.1 | 1 to 10 | 1 to 10 | – | – | – | – |
| Cc1cn2cc(NC(=O)c3ccc(N4CCN[C@@H](C)C4)c4ccnnc34)cc(F)c2n1 [Compound 147] | < 0.1 | < 0.1 | 1 to 10 | 1 to 10 | < 0.1 | < 0.1 | 1 to 10 | 1 to 10 | – | – | – | – |
| CNC1[C@@H]2C[C@H]1N(c1ccc(C(=O)Nc3cc(F)c4nc(C)cn4c3)c3nnccc13)C2 (stereo partly shown) [Compound 148] | 1 to 10 | 1 to 10 | 1 to 10 | 1 to 10 | 1 to 10 | 1 to 10 | 1 to 10 | 1 to 10 | – | – | – | – |
| CCc1cc2c(N3CCNCC3)ccc(C(=O)Nc3cc(F)c4nc(C)cn4c3)c2nn1 [Compound 185, 3-ethyl-N-{8-fluoro-2-methylimidazo[1,2-a]pyridin-6-yl}-5-(piperazin-1-yl)cinnoline-8-carboxamide] | 0.1 to 1 | 0.1 to 1 | > 10 | > 10 | 0.1 to 1 | < 0.1 | > 10 | > 10 | – | – | – | – |
| Cc1cn2cc(NC(=O)c3ccc(N4C[C@@H](C)N[C@@H](C(C)C)C4)c4nccnc34)cc(F)c2n1 [Compound 264, N-{8-fluoro-2-methylimidazo[1,2-a]pyridin-6-yl}-8-[(3S,5R)-3-isopropyl-5-methylpiperazin-1-yl]quinoxaline-5-carboxamide 2,2,2-trifluoroacetate] | 1 to 10 | 0.1 to 1 | > 10 | > 10 | 1 to 10 | < 0.1 | > 10 | > 10 | – | – | – | – |
| Cc1cn2cc(NC(=O)c3sc(N4CCNC(C)C4)cc3F)c(C)cc2n1 (stereo not shown) [Compound 639] | – | – | – | – | – | – | – | – | 1 to 10 | 1 to 10 | 0.1 to 1 | 0.1 to 1 |
| Cc1cn2cc(NC(=O)c3sc(N4CCNC(C)C4)cc3F)ncc2n1 (stereo not shown) [Compound 640] | – | – | – | – | – | – | – | – | > 10 | 1 to 10 | 0.1 to 1 | 0.1 to 1 |
| Cc1cn2cc(NC(=O)c3sc(N4CCNC(C)C4)cc3F)nc2c(C)n1 (stereo not shown) [Compound 641] | – | – | – | – | – | – | – | – | > 10 | > 10 | 1 to 10 | > 10 |
| Cc1cn2nc(NC(=O)c3sc(N4CCNC(C)C4)cc3F)nc2c(C)n1 (stereo not shown) [Compound 642] | – | – | – | – | – | – | – | – | > 10 | > 10 | 0.1 to 1 | > 10 |
